Assay results reported in ChEMBL document CHEMBL1158004, “New alkaloids from the indopacific sponge Stylissa carteri” (J Nat Prod, 1999).
Values after ≈ are worked out from the molar mass of the structure shown.

Assay: Cytotoxicity against human MONO-MAC 6 cells assessed as [3H]thymidine incorporation after 48 hrs
Assay type: functional, cell-based

| Compound | IC50 |
| --- | --- |
| NC1=NC(=O)/C(=C2\CCNC(=O)c3[nH]c(Br)cc32)N1 [HYMENIALDISINE] | 0.2 µg/mL (≈ 0.617 µM) |
| NC1=N/C(=C2/CCNC(=O)c3[nH]ccc32)C(=O)N1 [DEBROMOHYMENIALDISINE] | 2.4 µg/mL (≈ 9.79 µM) |
